Laboratory results published in US8329726B2, “Inhibitors of VEGF receptor and HGF receptor signaling” (MethylGene Inc., priority 2005, dated 2012).

How the values were obtained:
VEGF receptor KDR = biological target: T1, VEGF receptor KDR (Homo sapiens, UniProt P35968); assay: In vitro receptor tyrosine kinase assay (DELFIA), VEGF receptor KDR; format: biochemical; details: read-out: VEGFR IC50
T1 construct: made in house; host or cells: Sf9 cells (Spodoptera frugiperda), baculovirus

DU145 = DU145 scattering inhibition (HGF dependent scattering); format: cell-based; details: Homo sapiens, DU-145; HGF dependent scattering, DU145 cells; read-out: DU145 SCATTERING INHIB IC50
Source text: (§1) HGF has well known activity in terms of inducing scattering and migration (wound healing) (Wells et al., Cell Motil Cytoskeleton. 2005 November 62(3):180-94; Miura et al., Urology 2001 December 58(6):1064-9; Nishimura et al., Int J Urol. 1998 May 5(3):276-81; Wang et al., Mol Cancer Ther. 2003 November; 2(11):1085-92; and Christensen et al., Cancer Res. 2003 Nov. 1; 63(21):7345-55).

[1] = biological target: T2, recombinant human c-Met/HGF receptor (Homo sapiens, UniProt P08581); assay: In vitro receptor tyrosine kinase assay (DELFIA), c-Met/HGF receptor; format: biochemical; details: read-out: CMET IC50
T2 construct: His tag (pBlueBacHis2A vector); made in house; host or cells: Hi-5 cells (Trichoplusia ni), baculovirus
Procedure: Cell pellets were frozen at −80° C. until purification was performed.
The coated plates were washed and stored at 4° C. […] After incubation, the kinase reactions were quenched with EDTA and the plates were washed.

A549 = A549 wound healing inhibition (HGF dependent migration); format: cell-based; details: Homo sapiens, A549 cells, read-out: A549 WOUND HEALING INHIB IC50
Source text: as §1

T1 sequence (P35968 806-1356): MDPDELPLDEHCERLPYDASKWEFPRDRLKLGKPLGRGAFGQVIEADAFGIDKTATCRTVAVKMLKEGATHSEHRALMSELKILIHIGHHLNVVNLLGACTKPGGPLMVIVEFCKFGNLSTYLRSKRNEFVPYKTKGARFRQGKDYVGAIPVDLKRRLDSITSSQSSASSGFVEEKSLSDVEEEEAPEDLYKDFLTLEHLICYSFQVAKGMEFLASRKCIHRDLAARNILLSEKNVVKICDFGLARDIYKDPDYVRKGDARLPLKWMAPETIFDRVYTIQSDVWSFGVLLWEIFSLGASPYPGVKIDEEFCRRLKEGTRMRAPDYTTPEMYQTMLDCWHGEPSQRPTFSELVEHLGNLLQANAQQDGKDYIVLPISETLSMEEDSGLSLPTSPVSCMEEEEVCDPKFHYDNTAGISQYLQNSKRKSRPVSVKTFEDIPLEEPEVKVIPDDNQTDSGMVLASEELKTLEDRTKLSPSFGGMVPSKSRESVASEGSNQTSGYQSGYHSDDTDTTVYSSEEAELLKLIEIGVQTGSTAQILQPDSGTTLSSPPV
T2 sequence (P08581 1078-1337): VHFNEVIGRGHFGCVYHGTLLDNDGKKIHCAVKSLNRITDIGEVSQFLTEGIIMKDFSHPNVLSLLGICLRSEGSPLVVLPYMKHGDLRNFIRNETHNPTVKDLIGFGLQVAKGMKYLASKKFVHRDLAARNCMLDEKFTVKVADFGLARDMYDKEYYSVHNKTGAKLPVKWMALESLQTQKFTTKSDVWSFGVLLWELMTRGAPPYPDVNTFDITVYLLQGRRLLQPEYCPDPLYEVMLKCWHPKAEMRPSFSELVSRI

SMILES | IC50 (VEGF receptor KDR) [nM] | IC50 (DU145) [nM] | IC50 [1] [nM] | IC50 (A549) [nM]
O=C(Nc1ccc(Oc2ccnc3cc(-c4cn(CCN5CCCC5)cn4)sc23)c(F)c1)C1CCN(c2ccccc2)C1=O (stereo not drawn) | < 50 | < 1000 | 50 to 250 | 1000 to 5000
CC(=O)N1CC=C(c2cc3nccc(Oc4ccc(NC(=O)N5CCN(c6ccc(F)cc6)C5=O)cc4F)c3s2)CC1 | < 50 | < 1000 | < 50 | < 1000
CN(C)CCCn1cnc(-c2cc3nccc(Oc4ccc(NC(=O)CC(=O)N(C)c5ccccc5)cc4F)c3s2)c1 | < 50 | < 1000 | < 50 | < 1000
CN(C)[C@H]1CCN(C(=O)c2cc3nccc(Oc4ccc(NC(=O)N5CCN(c6ccccc6)C5=O)cc4F)c3s2)C1 | < 50 | < 1000 | < 50 | < 1000
CN1CCN(CCN(C)Cc2ccc(-c3cc4nccc(Oc5ccc(NC(=O)CC(=O)N(C)c6ccccc6)cc5F)c4s3)cc2)CC1 | < 50 | < 1000 | < 50 | 1000 to 5000
COc1ccccc1NC(=O)CC(=O)Nc1ccc(Oc2ccnc3cc(C(=O)NN(C)C)sc23)c(F)c1 | > 500 | 1000 to 5000 | 250 to 500 | 1000 to 5000
Cn1cnc(-c2cc3nccc(Nc4ccc(NC(=O)C5CCN(c6ccccc6)C5=O)cc4F)c3s2)c1 (stereo not drawn) | 250 to 500 | 1000 to 5000 | 50 to 250 | < 1000
CN1CCN(Cc2ccc(-c3cc4nccc(Oc5ccc(NC(=O)C6CCN(c7ccccc7)C6=O)cc5F)c4s3)cc2)CC1 (stereo not drawn) | < 50 | 1000 to 5000 | 50 to 250 | 1000 to 5000
CN1CCN(Cc2ccc(-c3cc4nccc(Oc5ccc(NC(=O)C6(C(=O)Nc7ccc(F)cc7)CC6)cc5F)c4s3)cc2)CC1 | < 50 | < 1000 | < 50 | < 1000
COc1ccccc1CCNC(=O)C(=O)Nc1ccc(Oc2ccnc3cc(-c4ccc(OCCN5CCOCC5)c(OC)c4)sc23)c(F)c1 | > 500 | > 10000 | 250 to 500 | 1000 to 5000
CN(C(=O)C1(C(=O)Nc2ccc(Oc3ccnc4cc(-c5cn(C)cn5)sc34)c(F)c2)CC1)c1ccccc1 | 50 to 250 | 1000 to 5000 | > 500 | < 1000
O=C(CC(=O)Nc1ccccc1F)Nc1ccc(Oc2ccnc3cc(C#CCN4CCOCC4)sc23)c(F)c1 | 250 to 500 | > 10000 | 50 to 250 | 1000 to 5000
Cn1cnc(-c2cc3nccc(Oc4ccc(NC(=O)C5CCN(c6cccnc6)C5=O)cc4F)c3s2)c1 (stereo not drawn) | 250 to 500 | 1000 to 5000 | 250 to 500 | 1000 to 5000
COc1ccccc1NC(=O)CC(=O)Nc1ccc(Oc2ccnc3cc(-c4cnc(N5CCOCC5)nc4)sc23)c(F)c1 | > 500 | > 10000 | > 500 | > 10000
Cn1ccnc1-c1cc2nccc(Oc3ccc(NC(=O)N4CCN(c5ccccc5)C4=O)cc3F)c2s1 | < 50 | < 1000 | < 50 | < 1000
Cn1cnc(-c2cc3nccc(Nc4ccc(NC(=O)C5(C(=O)Nc6ccccc6)CC5)cc4F)c3s2)c1 | 50 to 250 | < 1000 | < 50 | < 1000
Cn1ccnc1-c1cc2nccc(Oc3ccc(NC(=O)CC(=O)OC4CCNCC4)cc3F)c2s1 | > 500 | > 10000 | > 500 | > 10000
O=C(Cn1cnc(-c2cc3nccc(Oc4ccc(NC(=O)CC(=O)Nc5ccccc5)cc4F)c3s2)c1)NCCCN1CCCC1 | < 50 | 5000 to 10000 | < 50 | 1000 to 5000
CN1CCN(Cc2ccc(-c3cc4nccc(Oc5ccc(NC(=O)CC(=O)N(C)c6ccccc6)cc5F)c4s3)cc2)CC1 | < 50 | < 1000 | 50 to 250 | 1000 to 5000
Cn1ccnc1-c1cc2nccc(Oc3ccc(NC(=O)CC(=O)Nc4ccccc4F)cc3F)c2s1 [drawing 285] | < 50 | < 1000 | < 50 | < 1000
CN(C)CCn1cnc(-c2cc3nccc(Oc4ccc(NC(=O)N5CCN(c6ccccc6)C5=O)cc4F)c3s2)c1 | < 50 | < 1000 | < 50 | < 1000
Cn1cncc1-c1cc2nccc(Oc3ccc(NC(=O)CC(=O)Nc4ccccc4)cc3F)c2s1 [drawing 288] | < 50 | < 1000 | < 50 | < 1000
Cn1cnc(-c2cc3nccc(Oc4ccc(NC(=O)N5CCN(c6ccccc6)C5=O)cc4)c3s2)c1 | 50 to 250 | < 1000 | < 50 | < 1000
CN1CCN(CCN(C)Cc2ccc(-c3cc4nccc(Oc5ccc(NC(=O)N6CCN(c7ccccc7)C6=O)cc5F)c4s3)cc2)CC1 | < 50 | 1000 to 5000 | < 50 | > 10000
O=C(CC(=O)Nc1ccc(Oc2ccnc3cc(-c4ccc(CN5CCNCC5)cc4)sc23)c(F)c1)Nc1ccccc1 | < 50 | < 1000 | < 50 | 1000 to 5000
Cn1cnc(-c2cc3nccc(Oc4ccc(NC(=O)C5CCN(c6ccccc6F)C5=O)cc4F)c3s2)c1 (stereo not drawn) | 250 to 500 | 1000 to 5000 | 50 to 250 | < 1000
CN1CC=C(c2cc3nccc(Oc4ccc(NC(=O)N5CCN(c6ccccc6)C5=O)cc4F)c3s2)CC1 | 50 to 250 | < 1000 | < 50 | < 1000
CN(C(=O)CC(=O)Nc1ccc(Oc2ccnc3cc(-c4cn(CCCN5CCCC5)cn4)sc23)c(F)c1)c1ccccc1 | < 50 | < 1000 | < 50 | 1000 to 5000
CN1CCN(Cc2ccc(-c3cc4ncnc(Oc5ccc(NC(=O)CC(=O)Nc6ccccc6)cc5F)c4s3)cc2)CC1 | < 50 | 1000 to 5000 | 50 to 250 | > 10000

Now from value to compound:

IC50 (VEGF receptor KDR) [nM] | IC50 (DU145) [nM] | IC50 [1] [nM] | IC50 (A549) [nM] | SMILES
< 50 | < 1000 | 50 to 250 | 1000 to 5000 | CCCn1cnc(-c2cc3nccc(Oc4ccc(NC(=O)CC(=O)Nc5cccc(F)c5)cc4F)c3s2)c1
< 50 | 1000 to 5000 | < 50 | 1000 to 5000 | CC(C)n1cnc(-c2cc3nccc(Oc4ccc(NC(=O)CC(=O)Nc5nccs5)cc4F)c3s2)c1
< 50 | 1000 to 5000 | 50 to 250 | < 1000 | CCn1cnc(-c2cc3nccc(Oc4ccc(NC(=O)CC(=O)Nc5cccc(F)c5)cc4F)c3s2)c1
< 50 | > 10000 | 50 to 250 | 1000 to 5000 | CCn1cnc(-c2cc3nccc(Oc4ccc(NC(=O)C(=O)NCCc5ccccc5OC)cc4F)c3s2)c1
< 50 | < 1000 | < 50 | < 1000 | CCn1cnc(-c2cc3nccc(Oc4ccc(NC(=O)N5CCN(c6ccccc6)C5=O)cc4F)c3s2)c1
< 50 | < 1000 | < 50 | < 1000 | CCn1cnc(-c2cc3nccc(Oc4ccc(NC(=O)CC(=O)N(C)c5ccccc5)cc4F)c3s2)c1
< 50 | < 1000 | < 50 | < 1000 | Cn1cnc(-c2cc3nccc(Oc4ccc(NC(=O)CC(=O)Nc5ccccc5F)cc4F)c3s2)c1
< 50 | 1000 to 5000 | < 50 | < 1000 | COc1ccccc1NC(=O)CC(=O)Nc1ccc(Oc2ccnc3cc(-c4nccn4C)sc23)c(F)c1 [drawing 284]
< 50 | 1000 to 5000 | 50 to 250 | < 1000 | CCn1cnc(-c2cc3nccc(Oc4ccc(NC(=O)CC(=O)Nc5ccc(OC)cc5)cc4F)c3s2)c1
< 50 | < 1000 | < 50 | < 1000 | CCn1cnc(-c2cc3nccc(Oc4ccc(NC(=O)CC(=O)Nc5ccccc5)cc4F)c3s2)c1C
< 50 | < 1000 | < 50 | < 1000 | CN(C)CCn1cnc(-c2cc3nccc(Oc4ccc(NC(=O)CC(=O)Nc5ccccc5)cc4F)c3s2)c1
< 50 | < 1000 | < 50 | < 1000 | CCn1cnc(-c2cc3nccc(Oc4ccc(NC(=O)C5(C(=O)Nc6ccccc6OC)CC5)cc4F)c3s2)c1
< 50 | < 1000 | < 50 | < 1000 | CCn1cnc(-c2cc3nccc(Oc4ccc(NC(=O)C5(C(=O)Nc6ccccc6F)CC5)cc4F)c3s2)c1
< 50 | 1000 to 5000 | < 50 | 1000 to 5000 | COc1ccccc1NC(=O)CC(=O)Nc1ccc(Oc2ccnc3cc(-c4cncn4C)sc23)c(F)c1 [drawing 289]
> 500 | 1000 to 5000 | 50 to 250 | 1000 to 5000 | COc1cccc(Nc2cc3nccc(Oc4ccc(NC(=O)CC(=O)Nc5ccccc5)cc4F)c3s2)c1
< 50 | < 1000 | < 50 | < 1000 | Cn1cnc(-c2cc3nccc(Oc4ccc(NC(=O)CC(=O)Nc5ccccc5)cc4F)c3s2)c1 [drawing 287]
